We go through 20 compounds from publication PMC9440615 (Biochemical pharmacology, 2020).

Where a name gives a salt, the structure may show the parent alone. Read-outs that look alike come from different tables or passages of the source.

The test system of series [1] is CYP3A4 mRNA expression. Kind of series: CYP3A4 mRNA induction in HepaRG cells. As to conditions: 24 h treatment, Fig. 2A; for CYP3A4 mRNA induction (result in words): compared with vehicle or RIF 10 μM.
The target in series [2] is T1, hPXR (Homo sapiens, UniProt O75469).
T1 sequence (O75469 1-434): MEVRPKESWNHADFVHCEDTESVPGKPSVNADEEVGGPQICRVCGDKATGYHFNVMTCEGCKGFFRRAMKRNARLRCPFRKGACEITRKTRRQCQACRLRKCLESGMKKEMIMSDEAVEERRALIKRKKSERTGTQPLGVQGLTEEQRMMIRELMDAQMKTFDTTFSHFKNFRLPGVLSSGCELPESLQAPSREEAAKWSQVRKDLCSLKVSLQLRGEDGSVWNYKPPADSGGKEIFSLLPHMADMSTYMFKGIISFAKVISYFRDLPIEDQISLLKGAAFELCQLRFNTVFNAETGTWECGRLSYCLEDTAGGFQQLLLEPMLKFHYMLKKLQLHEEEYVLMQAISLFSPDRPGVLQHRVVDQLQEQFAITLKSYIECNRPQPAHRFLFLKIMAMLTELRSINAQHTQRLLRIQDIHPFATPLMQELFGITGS

In series [3] the test system is CYP3A4 mRNA expression.
For series [4], the target named is T1, hPXR. As to the kind of experiment: cell-based.
The test system of another series is CYP2B6 mRNA expression. Kind of series: CYP2B6 mRNA induction in HepaRG-PXR-KO cells versus HepaRG cells. The series is classed as cell-based, human. The following applies: HepaRG-PXR-KO vs HepaRG, 24 h, Fig. 5B.
For series [5], the system named is CYP3A4 mRNA expression. As to the kind of experiment: CYP3A4 mRNA induction in HepaRG-PXR-KO cells versus HepaRG cells. The series is classed as cell-based, human. As to conditions: HepaRG-PXR-KO vs HepaRG, 24 h, Fig. 5A.
The mark [6] stands for this setting: qHTS primary screen, hPXR-Luc HepG2, 24 h, relative to positive control RIF.
The mark [7] stands for this setting: PXR Primary EC50, qHTS primary screen, hPXR-Luc HepG2, 24 h.

For `CCOC(=O)C1=C(C)NC(C)=C(C(=O)OCC)C1c1ccccc1/C=C/C(=O)OC(C)(C)C` [Lacidipine], the “CYP3A4 mRNA induction (result in words)” value with CYP3A4 mRNA expression [1] was “greater extent than the positive control”. At hPXR [2], the “PXR Follow-up Efficacy” value is 10.4 ± 4.4 [115 ± 15.0] % and the “PXR Primary Efficacy” value was 5.6 ± 5.5 [155 ± 70.5] %.
As to `COc1cccc(N(C)C(=S)Oc2ccc3c(c2)CCCC3)n1` [Liranaftate], on hPXR [2], the “PXR Follow-up Efficacy” value was 4.5 ± 0.7 [144 ± 16.0] % and the “PXR Primary Efficacy” value was 5.5 ± 2.6 [148 ± 42.6] %. The “CYP3A4 mRNA induction (result in words)” value in the series with CYP3A4 mRNA expression [3] is “greater extent than the positive control”.
By EC50 is commonly meant the concentration at which the effect is half-maximal. Consider `N=C(Nc1ccccc1)Nc1ccccc1` [1,3-Diphenylguanidine], for which, on hPXR [2], the “PXR Follow-up Efficacy” value is 2.7 ± 0.3 [393 ± 128] % and the “PXR Primary Efficacy” value was 8.0 ± 13.7 [461 ± 143] %. For the same compound, the EC50 on hPXR [4] (PXR Primary EC50) stood at 8 µM. Also, the half-maximal effective concentration (EC50) on hPXR [4] ([…]) was determined as 2.7 µM.
Regarding `CCN1C(=O)c2ccccc2C1Nc1ccc(OCCN2CCCCC2)cc1` (stereo not drawn) [Etomidoline], in the series on CYP3A4 mRNA expression [1], the “CYP3A4 mRNA induction (result in words)” value was “greater extent than the positive control”. On hPXR [2] (setting [6]), the “PXR Primary Efficacy” value came to 175 ± 74.6%. The EC50 at hPXR [4] turned out to be 3.2 ± 0.4 µM; on hPXR [4] (setting [7]), 2.6 ± 1.3 µM.
Turning to `COC(=O)C1=C(C)NC(C)=C(C(=O)OC2CCCN(Cc3ccccc3)C2)C1c1cccc([N+](=O)[O-])c1` (racemic) [rac Benidipine hydrochloride], on hPXR [2], the “PXR Follow-up Efficacy” value was 4.6 ± 2.3 [105 ± 14.7] % and the “PXR Primary Efficacy” value was 5.6 ± 5.4 [141 ± 33.3] %.
Take `CCOc1cc(N)c(Cl)cc1C(=O)NCC1CN(Cc2ccc(F)cc2)CCO1` (stereo not drawn) [Mosapride citrate]: the “PXR Primary Efficacy” value at hPXR [2] (setting [6]) was found to be 222 ± 59.5%. The EC50 at hPXR [4] was found to be 10.8 ± 1.2 µM; at hPXR [4] (setting [7]), 8.8 ± 3.3 µM.
For `CC[C@H]1CN2CCc3cc(OC)c(OC)cc3[C@@H]2C[C@@H]1C[C@H]1NCCc2cc(OC)c(OC)cc21` [Emetine], at hPXR [2], the “PXR Follow-up Efficacy” value is 0.1 ± 0.01 [119 ± 8.89] % and the “PXR Primary Efficacy” value is 0.05 ± 0.04 [211 ± 74.0] %.
Regarding `CCCN(CCC)c1c([N+](=O)[O-])cc(C(F)(F)F)c(N)c1[N+](=O)[O-]` [Prodiamine], at hPXR [2], the “PXR Follow-up Efficacy” value is 8.5 ± 0.9 [108 ± 6.61] % and the “PXR Primary Efficacy” value is 4.7 ± 0.8 [168 ± 31.0] %. The compound further gave a half-maximal effective concentration (EC50) on hPXR [4] (PXR Primary EC50) of 4.7 µM. The compound further registered a half-maximal effective concentration (EC50) at hPXR [4] ([…]) of 8.5 µM.
As for `CCCCOCN(C(=O)CCl)c1c(CC)cccc1CC` [Butachlor], at hPXR [2], the “PXR Follow-up Efficacy” value was determined as 107 ± 26.0% and the “PXR Primary Efficacy” value came out at 119 ± 49.2%. In addition, in the series with CYP3A4 mRNA expression [3] (human), the “CYP3A4 mRNA induction (fold increase)” value is reported as greater than 5 fold. Moreover, on hPXR [4], the midpoint of the response, the EC50, lay at 6.49 ± 2.9 µM. In addition, the 50% effective concentration (EC50) on hPXR [4] (setting [7]) is 4 ± 4 µM.
With `Clc1ccc(-c2nc3sccn3c2C=NOCc2ccc(Cl)c(Cl)c2)cc1` [CITCO, 6-(4-Chlorophenyl)imidazo[2,1–b][1, 3]thiazole-5-carbaldehyde O-(3,4-dichlorobenzyl)oxime], the “Change of CYP2B6 mRNA expression in PXR-KO cells” value in the series with CYP2B6 mRNA expression is recorded as “significantly decreased”. The “Change of CYP3A4 mRNA induction in PXR-KO cells” value with CYP3A4 mRNA expression [5] is listed as “lack a significant decrease”.
Consider `CC(C)C[C@H](NC(=O)[C@H](Cc1ccccc1)NC(=O)c1cnccn1)B(O)O` [Bortezomib], for which, on hPXR [2], the “PXR Follow-up Efficacy” value is 0.02 ± 0.004 [83.8 ± 12.8] % and the “PXR Primary Efficacy” value is 0.008 ± 0.0005 [97.7 ± 17.9] %.
Turning to `COC(=O)c1c(C(F)F)nc(C(F)(F)F)c(C2=NCCS2)c1CC(C)C` [Thiazopyr], on hPXR [2], the “PXR Follow-up Efficacy” value is 4.6 ± 0.3 [102 ± 8.66] %. Further, the “PXR Primary Efficacy” value on hPXR [2] was 1.2 ± 1.0 [108 ± 37.9] %. In addition, the “CYP3A4 mRNA induction (result in words)” value in the series on CYP3A4 mRNA expression [3] was “greater extent than the positive control”. The concentration for a half-maximal effect (EC50) is 1.2 µM at hPXR [4] (PXR Primary EC50) and 4.6 µM on hPXR [4] ([…]).
On to `O[C@@H](COc1cccc2ncccc12)CN1CCN([C@@H]2c3ccccc3[C@@H]3[C@H](c4ccccc42)C3(F)F)CC1` [Zosuquidar trihydrochloride], for which, at hPXR [2] (setting [6]), the “PXR Primary Efficacy” value stood at 188 ± 41.7%. For the same compound, the 50% effective concentration (EC50) at hPXR [4] was found to be 1.6 ± 0.3 µM; at hPXR [4] (setting [7]) it was 3.2 ± 1.7 µM.
As for `Cc1oc2c(NC(=O)c3c(Cl)cccc3Cl)cccc2c1C(C)(C)O` [FR167356], the EC50 at hPXR [2] was 7.1 ± 1.2 µM; on hPXR [2] (read-out: PXR Primary EC50, qHTS primary screen, hPXR-Luc HepG2, 24 h) it was 3 ± 2.2 µM. Also, at hPXR [2] (setting [6]), the “PXR Primary Efficacy” value worked out at 178 ± 9.77%.
On to `CC(C)C[C@H](NC(=O)[C@H](CCc1ccccc1)NC(=O)CN1CCOCC1)C(=O)N[C@@H](Cc1ccccc1)C(=O)N[C@@H](CC(C)C)C(=O)[C@@]1(C)CO1` [Carfilzomib], for which the “PXR Primary Efficacy” value on hPXR [2] (setting [6]) turned out to be 110 ± 10.3%. For the same compound, the EC50 came to 0.1 ± 0.02 µM on hPXR [4] and 0.04 ± 0.024 µM on hPXR [4] (setting [7]).
On to `O=C(CCCCCCC(=O)Nc1ccccc1)NO` [Vorinostat (SAHA), Vorinostat], for which, on hPXR [2], the “PXR Primary Efficacy” value is 7.8 ± 3.8 [182 ± 46.9] %.
Regarding `Cc1nc(Nc2ncc(C(=O)Nc3c(C)cccc3Cl)s2)cc(N2CCN(CCO)CC2)n1` [Dasatinib], at hPXR [2], the “PXR Follow-up Efficacy” value is 0.6 ± 0.07 [127 ± 12.0] % and the “PXR Primary Efficacy” value is 0.3 ± 0.5 [84.6 ± 22.2] %.
Turning to `O=C(CCCN1CCC2(CC1)C(=O)NCN2c1ccccc1)c1ccc(F)cc1` [Spiperone], in the series on CYP3A4 mRNA expression [1], the “CYP3A4 mRNA induction (fold increase)” value is on record as greater than 5 fold and the “CYP3A4 mRNA induction (result in words)” value is reported as “not statistically significant”. At hPXR [2], the “PXR Follow-up Efficacy” value is 6.2 ± 3.3 [345 ± 225] % and the “PXR Primary Efficacy” value was 3.7 ± 0.4 [341 ± 31.7] %.
`Cc1cccc(N(C)C(=S)Oc2ccc3c(c2)CCC3)c1` [Tolindate]: the “PXR Primary Efficacy” value on hPXR [2] (setting [6]) is recorded as 201 ± 37.5%. Moreover, the values for the EC50 at hPXR [4] and on hPXR [4] (setting [7]) were 8.7 ± 1.5 µM and 8.3 ± 2.3 µM, respectively.
Consider `Nc1nc(Cl)nc2c1ncn2[C@@H]1O[C@H](CO)[C@@H](O)[C@@H]1F` [Clofarabine], for which, at hPXR [2], the “PXR Follow-up Efficacy” value was 3.3 ± 0.4 [214 ± 13.9] % and the “PXR Primary Efficacy” value is 0.7 ± 0.2 [112 ± 34.6] %.
